Test results from patent US11331294B2, “Benzoquinone derivative E3330 in combination with chemotherapeutic agents for the treatment of bladder cancer” (Indiana University Research and Technology Corporation, priority 2007, dated 2022).

What was measured:
UC3 cells = test: Methylene blue cell growth assay UC3; format: cell-based; conditions: Homo sapiens, read-out: cell growth-inhibitory IC50
Procedure: FIGS. 31A & 31B. Treatment with APE1/Ref-1 inhibitors potently blocks bladder cancer cell proliferation and activated Caspase 3/7. […] The IC50 values for FIG. 31A were determined using the methylene blue assay, n=4. […] T24 and UC3 cells were treated with APX2009 and APX2014 at the IC50 and IC90 and monitored over time for activation of capsase 3/7 by an increase in red fluorescence. Time course graphs are shown in FIG. 31B and representative images at 48 hr are shown in FIG. 32A (described more fully below), n=3-4.
FIGS. 36A-36H. […] In cytokine-induced T24 and UC3 cells NFκB-driven luciferase (FIG. 36A), STAT3-driven luciferase (FIG. 36B), and AP-1-driven luciferase (FIG. 36C) were quantified and normalized via Renilla following treatment with the corresponding cell growth-inhibitory IC50 concentrations. T24 cells were treated with APX2009 (8.5 μM) and APX2014 (6.5 μM), and UC3 cells were treated with APX2009 (6.1 μM) and APX2014 (4.6 μM) for 24 h. (*-p<0.05 APX treated vs vehicle, n=4). […] In the panels of FIGS. 36F & 36G, co-expression of survivin and APE1/Ref-1 was analyzed in superficial (FIG. 36F) and invasive human bladder tumors (FIG. 36G) in patients, and found nearly universal overlap of positivity in both in human samples. This was also true in cisplatin-refractory patients from the tissue microarray specimens (FIG. 36H). […]

RP-B-02 spheroids = test: 3D spheroid growth assay RP-B-02; format: cell-based, human; conditions: p<0.05
From the text: RP-B-01 and RP-B-02 cells were resuspended in normal growth media containing 3% Reduced Growth Factor Matrigel (BD Biosciences) at a cell density of 1,500 and 3,000 cells/well, respectively and plated in ultra-low adherence 96-well plates (Corning).
Spheroids were allowed to form and then treated on days 4, 8, and 12 following plating with media containing 5% serum, 3% Reduced Growth Factor Matrigel, and APE1/Ref-1 inhibitors. Vehicle control, DMSO, was less than 0.01% of the volume, and was equivalent in each well. On Day 15, Alamar blue reagent (LifeTechnologies) was added to each well (10 μL/well) and incubated for 24 hours.
In order to mimic tumor growth more accurately in a relevant microenvironment and in a more robust model for predicting response to treatment, a three-dimensional (3D) culture model of patient-derived RP-B-01 and RP-B-02 bladder cancer cells was used. Both RP-B-01 and RP-B-02 cell lines are transitional cell carcinoma staged as T4bN1Mx and T2bN0Mx Grade III tumors, respectively.

MCF-7 tumor cells = test: MTS cell survival assay MCF-7; format: cell-based, human; conditions: about 24 or 72 h
Procedure: Decreased cancer cell survival. MCF-7 or OVCAR-3 cells (about 2-4,000) were aliquoted into each well of a 96-well plate in triplicate and allowed to adhere overnight. APX3330 (RN3-3) was added to the cultures. After about 24 or 72 h, about 0.05 mg/mL 3-(4-5-Dimethylthiazol-2-yl)-5-(3-carboxymethoxyphenyl)-2-(4-sulfophenyl)-2H-tetrazolium salt (MTS) reagent was added to each well and incubated at about 37° C. for about 4 h followed by absorbance measurement at 490 nm. The values were standardized to wells containing media alone. […] Similar effects can be seen in multiple myeloma, prostate, non-small cell lung carcinoma, colon, and glioma derived cells.

multiple myeloma cells = test: Phospho-histone H2AX western blot (DNA double stranded breaks); format: cell-based; conditions: combination with melphalan
Procedure: APX3330 in combination with chemotherapeutic Melphalan. […] Synergistic plots made using CalcuSyn software. APX3330 was either given alone or in combination with melphalan. As an indicator of DNA double stranded breaks (DSBs), the phosphorylation of histone H2AX at Ser^139 was measured with a phosphorylation-specific H2AX antibody from Upstate Cell Signaling Solutions (Waltham, Md.). Cells were treated with melphalan alone or melphalan plus APX3330. After drug treatment, exponentially growing cells were harvested, washed in cold PBS, and lysed in about 100 μL RIPA assay buffer as described above. Protein was quantified and electrophoresed in SDS gel-loading buffer on a 12% SDS-polyacrylamide gel. Mouse monoclonal anti-phosphohistone H2AX (about 1:1000) or anti-actin antibody (about 1:1000; as a loading control, LabVision Corp., NeoMarkers, Fremont, Calif.) was used to probe for protein levels as described previously. Bands were detected using a chemiluminescence kit from Roche Applied Biosciences (Indianapolis, Ind.). The bands were visualized using Bio-Rad Chemidoc XRS (Hercules, Calif.) and quantitated using Chemidoc software, Quantity One 4.6.1.

pancreatic tumor cells = test: Annexin V/PI apoptosis assay in pancreatic tumor cells; format: cell-based
Procedure: APX3330 in combination with chemotherapeutic Gemcitabine. […] To analyze the cells for apoptosis, cells were plated and allowed to attach overnight. Cells were treated with APX3330 alone or with gemcitabine. Apoptosis was assayed about 24 and 48 hr following treatment. Cells were trypsinized, pelleted, washed in ice-cold PBS, and resuspended in 1× binding buffer [about 10 mmol/L HEPES/NaOH (pH 7.4), 140 mmol/L NaCl, 2.5 mmol/L CaCl2]. Apoptosis was analyzed using the Alexa Fluor 488 AnnexinV from Vybrant Apoptosis Assay kit in combination with propidium iodide (Molecular Probes, Eugene, Oreg.) as described previously Clinical Cancer Research 13, 260-267, Jan. 1, 2007. Cells that were strongly Annexin positive were considered positive for apoptosis. The samples were analyzed by flow cytometry in the Indiana University Cancer Center flow cytometry facility.
APX3330 in combination with Methoxyamine-pancreatic cells. […] To analyze the cells for apoptosis, cells were plated and allowed to attach overnight. […] Apoptosis was analyzed using the Alexa Fluor 488 Annexin V from Vybrant Apoptosis Assay kit in combination with propidium iodide (Molecular Probes, Eugene, Oreg.) as described previously Clinical Cancer Research 13, 260-267, Jan. […] The samples were analyzed by flow cytometry in the Indiana University Cancer Center flow cytometry facility.

[1] = tested on: rat dorsal root ganglion cells; test: MTS cell viability assay of dorsal root ganglion cells; format: cell-based
Procedure: APX3330 in combination with chemotherapeutic Cisplatin. […] There was no effect of APX3330 (RN3-3) on the post-mitotic DRG cells, indicative of a non-toxic effect of APX3330 (RN3-3) on non-dividing cells.
DRG cell cultures and treatments were performed similar to previously published procedures using just APX3330 alone (DNA Repair Volume 4, Issue 3, 2 Mar. 2005, pp […]).

SMILES | IC50 (UC3 cells) | potency in RP-B-02 cells in 3D culture relative to APX3330 (RP-B-02 spheroids) | killing of MCF-7 tumor cells (MCF-7 tumor cells) | DNA double stranded breaks (phospho-H2AX), melphalan plus APX3330 compared to melphalan alone (multiple myeloma cells) | apoptosis in combination with methoxyamine (pancreatic tumor cells; about 24 and 96 hr) | apoptosis in combination with gemcitabine (pancreatic tumor cells; gemcitabine about 0.25 μM, 24 and 48 hr) | survival of dorsal root ganglion cells ([1]; as high as about 120 μM, up to about 72 hours) | protection against cisplatin neurotoxicity ([1]; with cisplatin)
CCC/C(=C\C1=C(OC)C(=O)c2ccccc2C1=O)C(=O)N(CC)CC [APX2009, [(2E)-2-[(3-methoxy-1,4-dioxo-1,4-dihydronaphthalen-2-yl)methylidene]-N,N-diethylpentanamide]] | 6.1 µM | more potent in the RP-B-02 cells than parent compound APX3330 |  |  |  |  |  | 
CCCCCCCCC/C(=C\C1=C(C)C(=O)C(OC)=C(OC)C1=O)C(=O)O [APX3330] |  |  | dose dependently killed | increase in DSBs | enhanced the apoptosis inducing effects of methoxyamine | enhanced the apoptosis inducing effects of gemcitabine | did not impair the survival | provided protection against the neuro-toxic effects of the chemotherapeutic cisplatin
